We go through 12 compounds from ChEMBL document CHEMBL1201862, “PubChem BioAssay data set” (2004).

Test systems include 786-0; CCRF-CEM; HCT-116; HOP-62; IGROV-1; K562; NCI-H226; NCI-H23; NCI-H522; OVCAR-4; OVCAR-8; RPMI-8226; SF-268; SF-539; SNB-19; SK-MEL-5; Hs-578T; NCI/ADR-RES.
Common to all, as to test: DTP human tumour cell line panel, 48 h

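Cells were grown in 96-well plates and exposed to each compound for 48 hours at five concentrations; endpoints were interpolated linearly between bracketing concentrations, or set to the highest concentration if not reached. Abbreviation: GI50, concentration required for 50% inhibition of growth.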 Calls of active or inactive are those of the source. No stated cut-off is given here; in the data, active = GI50 up to about 1.1 µM and inactive = higher.

In general, GI50 refers to the concentration at which growth is held to half of that of the control. For the compound `O=C(c1ccccc1)C(c1ccccc1)C1(O)C(=O)Nc2ccc(Br)cc21` (stereo not given), the GI50 in the assay with 786-0 is 71.9 µM (inactive); in the assay with CCRF-CEM it was 17.7 µM (inactive); in the assay on HCT-116, 37.9 µM (inactive); in the assay with HOP-62, 59.3 µM (inactive); with IGROV-1, 56.4 µM (inactive); in the assay with K562, 18.9 µM (inactive). Besides, the GI50 in the assay on NCI-H226 was 40.5 µM (inactive); in the assay on NCI-H23 it was 50.4 µM (inactive); in the assay with NCI-H522, 20.9 µM (inactive); in the assay on OVCAR-4 it was 32.8 µM (inactive); in the assay on OVCAR-8, 52.8 µM (inactive); with RPMI-8226, 17.9 µM (inactive). The values for the GI50 in the assay with SF-268, in the assay with SF-539 and in the assay with SNB-19 were 72.6 µM (inactive), 44.9 µM (inactive) and > 100 µM (inactive), respectively.

On to `Nc1c(C(=O)Nc2ccccc2O)[n+]([O-])c2ccccc2[n+]1[O-]`, for which the GI50 is > 100 µM (inactive) with 786-0; 31.7 µM (inactive) with HCT-116; > 100 µM (inactive) with HOP-62; 81.5 µM (inactive) with IGROV-1; 41.9 µM (inactive) with K562; > 100 µM (inactive) in the assay on NCI-H226. Also, the GI50 was 23.9 µM (inactive) with NCI-H23; 43.4 µM (inactive) with NCI-H522; > 100 µM (inactive) in the assay on OVCAR-4; 64.1 µM (inactive) in the assay on OVCAR-8; 22.3 µM (inactive) with RPMI-8226; 32.3 µM (inactive) in the assay with SF-539. The GI50 in the assay with SK-MEL-5 was 14.7 µM (inactive); with SNB-19, > 100 µM (inactive).

As to `Cc1cc(=O)oc2cc(OCc3nc4ccccc4c(=O)[nH]3)ccc12`, the GI50 with 786-0, with CCRF-CEM, in the assay on HCT-116, in the assay with HOP-62, with IGROV-1 and with K562 was > 100 µM (inactive) each time. In addition, the GI50 in the assay on NCI-H226, in the assay on NCI-H23, in the assay on NCI-H522, in the assay with OVCAR-4, in the assay on OVCAR-8 and with RPMI-8226 was > 100 µM (inactive) throughout. Also, the GI50 in the assay with SF-268, with SF-539, in the assay with SK-MEL-5 and in the assay with SNB-19 was > 100 µM (inactive) throughout.

For the compound `O=C(OCc1ccccc1)n1cccc1`, the GI50 with 786-0 is > 100 µM (inactive); in the assay on CCRF-CEM, > 100 µM (inactive); with HCT-116, 84.9 µM (inactive); in the assay on HOP-62, > 100 µM (inactive); in the assay with IGROV-1 it was > 100 µM (inactive); in the assay with K562, 97.1 µM (inactive). Also, the GI50 is > 100 µM (inactive) with NCI-H226; 98.6 µM (inactive) in the assay on NCI-H23; > 100 µM (inactive) in the assay with NCI-H522; > 100 µM (inactive) in the assay with OVCAR-4; > 100 µM (inactive) in the assay with OVCAR-8; 54.6 µM (inactive) in the assay on RPMI-8226. Besides, the GI50 in the assay on SF-268, in the assay with SF-539, in the assay on SK-MEL-5 and with SNB-19 was > 100 µM (inactive) in each case.

For the compound `O=C1N(c2ccc(Cl)cc2)C(=O)C2(SC=NN2Cc2ccccc2)N1c1ccc(Cl)cc1` (stereo not given), the GI50 with 786-0 was > 100 µM (inactive); in the assay with CCRF-CEM it was 7.57 µM (inactive); in the assay on HCT-116, 9.18 µM (inactive); with HOP-62, > 100 µM (inactive); in the assay with IGROV-1 it was > 100 µM (inactive); with K562 it was 9.59 µM (inactive). Moreover, the GI50 in the assay on NCI-H226 was > 100 µM (inactive); in the assay with NCI-H23, 8.24 µM (inactive); in the assay on NCI-H522, 7.76 µM (inactive); in the assay with OVCAR-4 it was > 100 µM (inactive); in the assay on OVCAR-8 it was > 100 µM (inactive); in the assay with RPMI-8226, 8.34 µM (inactive). The GI50 in the assay on SF-268 is > 100 µM (inactive); in the assay with SF-539, 34.3 µM (inactive); in the assay with SK-MEL-5, > 100 µM (inactive); with SNB-19, > 100 µM (inactive).

Turning to `CN(C)C(=S)Nc1nnc(NC23CC4CC(CC(C4)C2)C3)s1.[O-][Cl+3]([O-])([O-])O`, the GI50 was 16.6 µM (inactive) in the assay on 786-0; 15 µM (inactive) in the assay with CCRF-CEM; 13.3 µM (inactive) with HCT-116; 18.6 µM (inactive) in the assay on HOP-62; 30.1 µM (inactive) with IGROV-1; 15.8 µM (inactive) in the assay on K562. Moreover, the GI50 in the assay on NCI-H226 is 19.4 µM (inactive); in the assay on NCI-H23 it was 10 µM (inactive); in the assay on NCI-H522 it was 16.1 µM (inactive); in the assay with OVCAR-4, 16.1 µM (inactive); with OVCAR-8 it was 26.7 µM (inactive); in the assay on RPMI-8226, 16 µM (inactive). Further, the GI50 was 16.4 µM (inactive) with SF-268, 10 µM (inactive) with SF-539, 0.1 µM (active) in the assay on SK-MEL-5 and 18.3 µM (inactive) with SNB-19.

Consider `C/C(=N\NC(=S)NC(CCC(=O)O)C(=O)O)c1ccccn1` (stereo not given), for which the GI50 in the assay with 786-0, in the assay on CCRF-CEM, with HCT-116, with HOP-62, in the assay with IGROV-1 and with K562 was > 100 µM (inactive) in each case. Moreover, the GI50 in the assay with NCI-H226, in the assay on NCI-H23, in the assay on NCI-H522, in the assay on OVCAR-4, in the assay on OVCAR-8 and with RPMI-8226 was > 100 µM (inactive) throughout. Further, the GI50 with SF-268, in the assay with SF-539, with SK-MEL-5 and with SNB-19 was > 100 µM (inactive) throughout.

For `Cc1cc(Cl)ccc1NC(=O)C(=O)C(C(=O)c1ccc2ccccc2c1)C1OC(=O)c2ccccc21` (stereo not given), the GI50 was 8.91 µM (inactive) in the assay with 786-0; 1.11 µM (active) with CCRF-CEM; 9.4 µM (inactive) in the assay on HCT-116; 10.5 µM (inactive) in the assay with HOP-62; 20.8 µM (inactive) with IGROV-1; 8.61 µM (inactive) in the assay with K562. Further, the GI50 is 2.3 µM (inactive) in the assay on NCI-H226; 6.73 µM (inactive) in the assay with NCI-H23; 7.06 µM (inactive) in the assay with NCI-H522; 7.6 µM (inactive) with OVCAR-4; 14.1 µM (inactive) in the assay on OVCAR-8; 3.1 µM (inactive) with RPMI-8226. Also, the GI50 with SF-268 is 4.08 µM (inactive); in the assay with SF-539, 4.48 µM (inactive); in the assay with SK-MEL-5 it was 12.7 µM (inactive); in the assay with SNB-19, 3.87 µM (inactive).

Turning to `Cc1c(C(=O)C/C(=N/NC(=O)C[N+](C)(C)C)C(=O)Nc2ccc(Cl)cc2)[n+]([O-])c2ccccc2[n+]1[O-]`, the GI50 in the assay with 786-0, with CCRF-CEM, in the assay on HCT-116, in the assay with HOP-62, in the assay on IGROV-1 and in the assay with K562 was > 100 µM (inactive) each time. Also, the GI50 in the assay with NCI-H226, in the assay on NCI-H23, with NCI-H522, in the assay with OVCAR-4, with OVCAR-8 and in the assay with RPMI-8226 was > 100 µM (inactive) throughout. Moreover, the GI50 in the assay on SF-268, with SF-539, in the assay with SK-MEL-5 and in the assay with SNB-19 was > 100 µM (inactive) throughout.

As for `COc1cccc(N2C(=O)/C(=C/c3ccc(N(CCC#N)CCC#N)cc3)N=C2c2cc([N+](=O)[O-])ccc2Cl)c1`, the GI50 is 30.5 µM (inactive) in the assay on 786-0; 48.8 µM (inactive) in the assay on CCRF-CEM; 50.9 µM (inactive) with HOP-62; 50.7 µM (inactive) in the assay on IGROV-1; 34.5 µM (inactive) in the assay on K562; > 100 µM (inactive) in the assay with NCI-H226. For the same compound, the GI50 with NCI-H23 is 89.1 µM (inactive); with NCI-H522, 55.8 µM (inactive); in the assay on OVCAR-4 it was > 100 µM (inactive); with OVCAR-8, 78.7 µM (inactive); with RPMI-8226, 68.1 µM (inactive); in the assay on SF-268 it was > 100 µM (inactive). Further, the GI50 with SF-539 was > 100 µM (inactive); in the assay with SK-MEL-5 it was 84.9 µM (inactive); in the assay on SNB-19, > 100 µM (inactive).

`CC(C)C1=CC23CCC4C(C)(C(=O)O)CCCC4(C)C2CC1C1C(=O)N(c2ccccc2)C(=O)C13` (stereo not given): the GI50 is 55.2 µM (inactive) in the assay with 786-0; 56.6 µM (inactive) in the assay on CCRF-CEM; 39.1 µM (inactive) in the assay on HCT-116; 51.3 µM (inactive) with HOP-62; 37.2 µM (inactive) with IGROV-1; 69.8 µM (inactive) with K562. In addition, the GI50 in the assay on NCI-H226 is 15.5 µM (inactive); in the assay with NCI-H23 it was > 100 µM (inactive); with NCI-H522 it was 49.1 µM (inactive); in the assay on OVCAR-4, > 100 µM (inactive); in the assay with OVCAR-8 it was 64 µM (inactive); with RPMI-8226, > 100 µM (inactive). For the same compound, the GI50 was 41.1 µM (inactive) in the assay on SF-268, 51.3 µM (inactive) in the assay with SF-539, 44.2 µM (inactive) with SK-MEL-5 and 46.9 µM (inactive) with SNB-19.

Turning to `COc1ccc2nc3ccccc3c(NCCCCN(CCCl)CCCl)c2c1`, the GI50 in the assay with 786-0 is 0.0436 µM (active); with CCRF-CEM it was 0.01 µM (active); in the assay with HCT-116, 0.0733 µM (active); with HOP-62, 0.655 µM (active); in the assay on Hs-578T, 2 µM (inactive); with IGROV-1, 0.227 µM (active). Also, the GI50 in the assay on K562 was 0.0376 µM (active); with NCI-H226 it was 0.368 µM (active); in the assay with NCI-H23, 0.147 µM (active); with NCI-H522 it was 0.02 µM (active); with NCI/ADR-RES it was 0.448 µM (active); in the assay with OVCAR-4, 0.148 µM (active). In addition, the GI50 in the assay on OVCAR-8 is 0.0218 µM (active); in the assay on RPMI-8226, < 0.0476 µM (active); in the assay on SF-268 it was 0.0735 µM (active); in the assay on SF-539 it was 0.136 µM (active); with SK-MEL-5 it was 0.292 µM (active); with SNB-19, 0.783 µM (active).
